Experimental data reported in ChEMBL document CHEMBL1641428, “Inhibition of the β-carbonic anhydrase from Streptococcus pneumoniae by inorganic anions and small molecules: Toward innovative drug design of antiinfectives?” (Bioorg Med Chem, 2011).
pKi: −log10 of the molar value.

How the values were obtained:
Carbonic anhydrase 1 = Carbonic anhydrase 1 (Homo sapiens, UniProt P00915); assay: Inhibition of human carbonic anhydrase 1 after 15 mins by stopped flow CO2 hydration assay
Carbonic anhydrase 2 = Carbonic anhydrase 2 (Homo sapiens, UniProt P00918); assay: Inhibition of human carbonic anhydrase 2 after 15 mins by stopped flow CO2 hydration assay

Sequence of Carbonic anhydrase 1 (P00915 whole entry): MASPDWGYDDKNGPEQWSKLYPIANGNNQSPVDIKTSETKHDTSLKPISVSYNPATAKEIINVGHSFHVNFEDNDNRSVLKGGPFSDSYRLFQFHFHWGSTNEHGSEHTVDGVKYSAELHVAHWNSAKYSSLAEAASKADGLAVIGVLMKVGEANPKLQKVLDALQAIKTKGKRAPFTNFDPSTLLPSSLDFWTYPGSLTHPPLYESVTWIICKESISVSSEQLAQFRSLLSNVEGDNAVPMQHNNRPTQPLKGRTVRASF

SMILES: O=S(=O)(O)ONOS(=O)(=O)O [SODIUM IMINODISULFATE]
- pKi (Carbonic anhydrase 1): 6.51
- pKi (Carbonic anhydrase 2): 6.12
